32 molecules from patent US20150352108A1, “AMINO-PYRIMIDINE COMPOUNDS AS INHIBITORS OF TBK1 AND/OR IKK EPSILON” (Alzheimer's Institute of America, priority 2009, published 2015) can be followed below.

SMILES strings stand for the structures.

For orientation: IC50 means the concentration at which inhibition is half-maximal.

The test concerns the target T1, IKKε (Homo sapiens, UniProt Q14164).
T1 construct: His-tag; made in house; host or cells: Sf9 insect cells
T1 sequence (Q14164 1-716): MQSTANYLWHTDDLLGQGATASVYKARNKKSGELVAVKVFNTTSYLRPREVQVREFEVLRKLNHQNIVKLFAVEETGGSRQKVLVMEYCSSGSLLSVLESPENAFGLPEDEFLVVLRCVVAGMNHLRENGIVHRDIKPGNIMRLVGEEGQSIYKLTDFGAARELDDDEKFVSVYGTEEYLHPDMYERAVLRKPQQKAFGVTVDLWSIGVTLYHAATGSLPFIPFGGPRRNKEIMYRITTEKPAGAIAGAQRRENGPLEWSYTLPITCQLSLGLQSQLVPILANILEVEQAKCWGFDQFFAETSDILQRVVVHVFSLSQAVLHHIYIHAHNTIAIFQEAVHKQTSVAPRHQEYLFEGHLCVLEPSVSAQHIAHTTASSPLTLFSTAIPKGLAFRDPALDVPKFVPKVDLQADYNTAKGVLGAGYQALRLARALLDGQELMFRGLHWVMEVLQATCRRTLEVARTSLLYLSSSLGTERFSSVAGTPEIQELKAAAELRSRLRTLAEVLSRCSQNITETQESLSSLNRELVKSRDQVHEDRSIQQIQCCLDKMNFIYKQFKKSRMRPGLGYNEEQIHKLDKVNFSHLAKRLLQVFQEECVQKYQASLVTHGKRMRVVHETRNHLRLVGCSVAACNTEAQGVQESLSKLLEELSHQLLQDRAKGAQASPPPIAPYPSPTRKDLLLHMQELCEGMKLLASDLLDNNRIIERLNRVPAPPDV
In words: In-vitro IKKε kinase assay ([γ33]ATP filter-plate). Conditions: text bins; read-out: IC50 for inhibition of the kinase activity of IKKε. It counts as biochemical. In short, it runs like this: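 His-tagged IKKε and TBK1 from Sf9 cells were assayed with myelin basic protein or casein and [γ33]ATP at 2×Km ATP (32 μM for IKKε, 60 μM for TBK1). Enzyme was 0.1 or 0.015 μg/ml for IKKε and 0.1 or 0.02 μg/ml for TBK1 (normal/sensitized). Reactions ran 30-45 min, were filter-captured, scintillation-counted, and normalized to DMSO after background subtraction.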
Regarding `C[C@H](O)C(=O)N1CCC(Oc2ccc(-c3ccnc(Nc4ccc(N5CCOCC5)cc4)n3)cc2C#N)C1` (stereo partly drawn) [Example 192, 2-({1-[(2S)-2-hydroxypropanoyl]pyrrolidin-3-yl}oxy)-5-(2-{[4-(morpholin-4-yl)phenyl]amino}pyrimidin-4-yl)benzonitrile], the IC50 fell in the range of 5 to 50 nM. Take `CC(C)COC(=O)Nc1ccc(-c2ccnc(Nc3ccc(N4CCOCC4)cc3)n2)cc1C#N` [Example 180, 2-methylpropyl [2-cyano-4-(2-{[4-(morpholin-4-yl)phenyl]amino}pyrimidin-4-yl)phenyl]carbamate]: the IC50 lay in the range of 50 to 500 nM. Consider `COc1cc(Nc2nccc(-c3ccc(OCC(C)C)c(C#N)c3)n2)ccc1C(=O)N1CC(OC)C1` [compound 587, 5-[2-({3-Methoxy-4-[(3-methoxyazetidin-1-yl)carbonyl]phenyl}amino)pyrimidin-4-yl]-2-(2-methylpropoxy) benzonitrile], for which the IC50 was below 5 nM.

As to `CC(C)(C)c1cccc(Nc2nccc(-c3cccc(C#N)c3)n2)c1` [compound 300], the half-maximal inhibitory concentration (IC50) lay in the range of 50 to 500 nM. For `COc1ccc(-c2ccnc(Nc3cccc(S(=O)(=O)NCCCO)c3)n2)cc1C#N` [compound 306, 3-{[4-(3-Cyano-4-methoxyphenyl)pyrimidin-2-yl]amino}-N-(3-hydroxypropyl) benzenesulfonamide], the IC50 lay in the range of 50 to 500 nM. To `N#Cc1cc(-c2ccnc(Nc3ccc(N4CCOCC4)cc3)n2)ccc1OCCNC(=O)CCO` [Example 95] belongs 50 to 500 nM. The value for `CC(C)(N)C(=O)N1CCC(COc2ccc(-c3ccnc(Nc4ccc(N5CCOCC5)cc4)n3)cc2C#N)CC1` [Example 255, 2-{[1-(2-methylalanyl)piperidin-4-yl]methoxy}-5-(2-{[4-(morpholin-4-yl)phenyl]amino}pyrimidin-4-yl)benzonitrile] was 50 to 500 nM. To `COc1cc(NC(=O)NC2CCN(C)CC2)cc(Nc2nccc(-c3ccc(OC)c(C#N)c3)n2)c1` [compound 388] belongs 50 to 500 nM.

Regarding `CC(C)NCCc1ccc(Nc2nccc(-c3ccc(NC(=O)C(C)C)c(C#N)c3)n2)cc1` [compound 462, N-{2-cyano-4-[2-({4-[2-(propan-2-ylamino)ethyl]phenyl}amino)pyrimidin-4-yl]phenyl}-2-methylpropanamide], the IC50 was in the range of 5 to 50 nM. To `N#Cc1cc(-c2ccnc(Nc3ccc(N4CCOCC4)cc3)n2)ccc1O[C@H]1CCN(C(=O)CO)C1` [compound 623, 2-{[(3S)-1-(Hydroxyacetyl)pyrrolidin-3-yl]oxy}-5-(2-{[4-(morpholin-4-yl)phenyl]amino}pyrimidin-4-yl)benzonitrile] belongs 5 to 50 nM; to `N#Cc1cc(-c2ccnc(Nc3cccc(S(N)(=O)=O)c3)n2)ccc1OC1CCOCC1` [Example 146, 3-({4-[3-cyano-4-(tetrahydro-2H-pyran-4-yloxy)phenyl]pyrimidin-2-yl}amino) benzenesulfonamide], 5 to 50 nM. To `COC1CN(c2cccc(Nc3nccc(-c4ccc(O[C@@H]5CCN(C(=O)CO)C5)c(C#N)c4)n3)c2)C1` [compound 639] belongs below 5 nM; to `COc1ccc(-c2ccnc(Nc3cc(CN(C)C)c(OC)c(OC)c3)n2)cc1C#N` [Example 174, 5-[2-({3-[(Dimethylamino)methyl]-4,5-dimethoxyphenyl}amino)pyrimidin-4-yl]-2-methoxybenzonitrile], 5 to 50 nM; to `CCN1CCN(c2ccc(-c3ccnc(Nc4ccc(N5CCNC(=O)C5)c(OC)c4)n3)cc2C#N)CC1` [Example 36, 2-(4-Ethylpiperazin-1-yl)-5-(2-{[3-methoxy-4-(3-oxopiperazin-1-yl)phenyl]amino}pyrimidin-4-yl)benzonitrile], 50 to 500 nM.

On to `N#Cc1cc(-c2ccnc(Nc3cccc(NC(=O)NCCO)c3)n2)ccc1OC1CCOCC1` [compound 622, 1-[3-({4-[3-Cyano-4-(tetrahydro-2H-pyran-4-yloxy)phenyl]pyrimidin-2-yl}amino)phenyl]-3-(2-hydroxyethyl)urea], for which the IC50 was below 5 nM. To `N#Cc1cc(-c2ccnc(Nc3ccc(CN4CC(O)C4)cc3)n2)ccc1O[C@@H]1CCN(C(=O)CO)C1` [compound 615, 2-{[(3R)-1-(Hydroxyacetyl)pyrrolidin-3-yl]oxy}-5-[2-({4-[(3-hydroxyazetidin-1-yl)methyl]phenyl}amino)pyrimidin-4-yl]benzonitrile] belongs below 5 nM; to `COc1cc(NC(=O)NCCCNC(C)=O)cc(Nc2nccc(-c3ccc(OC)c(C#N)c3)n2)c1` [compound 391, N-(3-{[(3-{[4-(3-Cyano-4-methoxyphenyl)pyrimidin-2-yl]amino}-5-methoxyphenyl)carbamoyl]amino}propyl) acetamide], 50 to 500 nM. Turning to `N#Cc1cc(-c2ccnc(Nc3ccc(N4CCOCC4)cc3)n2)ccc1NC(=O)C1CCCC1` [Example 56, N-[2-cyano-4-(2-{[4-(morpholin-4-yl)phenyl]amino}pyrimidin-4-yl)phenyl] cyclopentane-carboxamide], the IC50 was in the range of 5 to 50 nM.

With `CC(C)(C)c1ccc(Nc2nccc(-c3cccc(C#N)c3)n2)cc1` [Example 282, 3-{2-[(4-tert-Butylphenyl)amino]pyrimidin-4-yl}benzonitrile], the IC50 was 50 to 500 nM. To `C[C@@H](O)C(=O)N1CCC(Oc2ccc(-c3ccnc(Nc4ccc(N5CCOCC5)cc4)n3)cc2C#N)C1` (stereo partly drawn) [Example 142, 2-({1-[(2R)-2-hydroxypropanoyl]pyrrolidin-3-yl}oxy)-5-(2-{[4-(morpholin-4-yl)phenyl]amino}pyrimidin-4-yl)benzonitrile] belongs 50 to 500 nM; to `N#Cc1cc(-c2ccnc(Nc3ccc(N4CCOCC4)cc3)n2)ccc1OCCC1CCNCC1` [compound 472, 5-(2-{[4-(morpholin-4-yl)phenyl]amino}pyrimidin-4-yl)-2-[2-(piperidin-4-yl)ethoxy] benzonitrile], 50 to 500 nM; to `CC(=O)N1CCCC(COc2ccc(-c3ccnc(Nc4ccc(N5CCOCC5)cc4)n3)cc2C#N)C1` (centres unmarked) [Example 161], 5 to 50 nM. For the molecule `N#Cc1cc(-c2ccnc(Nc3cccc(-n4ccnc4)c3)n2)ccc1OC1CCOCC1` [compound 560, 5-(2-{[3-(1H-Imidazol-1-yl)phenyl]amino}pyrimidin-4-yl)-2-(tetrahydro-2H-pyran-4-yloxy)benzonitrile], the IC50 was below 5 nM. Take `CC(C)C[C@H](O)C(=O)N1CCC(Oc2ccc(-c3ccnc(Nc4ccc(N5CCOCC5)cc4)n3)cc2C#N)CC1` [Example 229, 2-({1-[(2S)-2-hydroxy-4-methylpentanoyl]piperidin-4-yl}oxy)-5-(2-{[4-(morpholin-4-yl)phenyl]amino}pyrimidin-4-yl)benzonitrile]: the IC50 lay in the range of 5 to 50 nM. In the case of `COc1ccc(Nc2nccc(-c3cc(C#N)cc(OCc4ccccc4)c3)n2)cc1OC` [Example 145, 3-(Benzyloxy)-5-{2-[(3,4-dimethoxyphenyl)amino]pyrimidin-4-yl}benzonitrile], the IC50 was 50 to 500 nM.

Take `N#Cc1cc(-c2ccnc(Nc3ccc(N4CCOCC4)cc3)n2)ccc1NCc1cccnc1` [Example 200, 5-(2-{[4-(Morpholin-4-yl)phenyl]amino}pyrimidin-4-yl)-2-[(pyridin-3-ylmethyl)amino] benzonitrile]: the IC50 was in the range of 5 to 50 nM.

Regarding `COc1ccc(Nc2nccc(-c3cccc(C#N)c3)n2)cc1F` [Example 66, 3-{2-[(3-Fluoro-4-methoxyphenyl)amino]pyrimidin-4-yl}benzonitrile], the IC50 was 50 to 500 nM. `N#Cc1cc(-c2ccnc(Nc3ccc(N4CCOCC4)cc3)n2)ccc1NC(=O)NC1CCC(O)CC1` (centres unmarked) [Example 46, 1-[2-cyano-4-(2-{[4-(morpholin-4-yl)phenyl]amino}pyrimidin-4-yl)phenyl]-3-(4-hydroxycyclohexyl) urea]: the IC50 was in the range of 50 to 500 nM. The value for `N#Cc1cccc(-c2nc(Nc3ccc(N4CCOCC4)cc3)nc3[nH]cnc23)c1` [compound 562, 3-(2-{[4-(Morpholin-4-yl)phenyl]amino}-3H-purain-6-yl)benzonitrile] was 50 to 500 nM; that for `N#Cc1cc(-c2ccnc(Nc3ccc(N4CCOCC4)cc3)n2)ccc1OC1CCN(C(=O)[C@@H](O)C(F)(F)F)CC1` [Example 113, 5-(2-{[4-(morpholin-4-yl)phenyl]amino}pyrimidin-4-yl)-2-({1-[(2R)-3,3,3-trifluoro-2-hydroxypropanoyl]piperidin-4-yl}oxy)benzonitrile] was 5 to 50 nM. Turning to `COc1ccc(-c2ccnc(Nc3ccc(NC(=O)NCCCO)cc3)n2)cc1C#N` [Example 7, 1-(4-{[4-(3-Cyano-4-methoxyphenyl)pyrimidin-2-yl]amino}phenyl)-3-(3-hydroxypropyl)urea], the IC50 fell in the range of 50 to 500 nM.

For the molecule `N#Cc1cc(-c2ccnc(Nc3ccc(N4CCOCC4)cc3)n2)ccc1OC1CN(C=O)C1` [Example 101, 2-[(1-formylazetidin-3-yl)oxy]-5-(2-{[4-(morpholin-4-yl)phenyl]amino}pyrimidin-4-yl)benzonitrile], the IC50 lay in the range of 50 to 500 nM.
